Marks after values point to notes of the source that are not given here. No end group written: not given here.
Legend:
[1] = 50 mM buffer solutions pH 5.6-8.0, 0.25% Proxel GXL
Procedure: Stability against chemical degradation was assessed in various pH buffers by creating 0.2% AI solutions of pure, chemically synthesized peptide in deionized water, 0.25% weight to volume of Proxel® GXL (biocide), and 50 millimolar (mM) of nine buffers (separately) as follows: Citrate, pH 5.6, MES pH 6.0, MOPS pH 6.5, Citrate pH 7.2, EDDS pH 7.3, imidazole pH 7.5, EDTA pH 8, Phosphate pH 8, and TES pH 8.

[2] = test system: Nicotiana tabacum cultivar xanthi plants; test: Hypersensitive Response (HR) induction in tobacco leaves; type: in vivo; set-up: key to HR: Plants are considered HR-positive (“HR+”) if they exhibit wide-spread macroscopic cell death visible to the naked eye, accompanied by wilting and browning of the affected tissue within 48 hours; Plants are considered HR-negative (“HR−”) if they exhibit no discernible wilting or tissue death observable by naked eye; conditions: tobacco leaf infused with 500, 250, 125, 62.5, 31.25 μg/ml peptide solutions, scored over 48 hours
Text: A property of a peptide to elicit a hypersensitive response, or not, upon infiltration or application of the peptide to plant tissues can be measured by applying the peptide in dry powder form or in solution form to a plant, particularly though not exclusively a plant leaf.
The minimal eliciting sequence derived from was developed based on the sequence of the hrex gene from Xanthomonas campestris pv. pelargonii. A number of truncated and mutated sequences were synthesized and tested for Hypersensitive Response induction (results in Table 4). HR in tobacco was tested as described in Wei, Science 257:85-88 (1992), which is hereby incorporated by reference in its entirety. Briefly, peptides were dissolved at a concentration of 500 μg/ml in aqueous solution. Four serial dilutions were performed with an equal volume of water, yielding peptide samples at 500, 250, 125, 62.5, 31.25 μg/ml peptide solutions. Nicotiana tabacum cultivar xanthi plants were used at 5-7 weeks old (preflowering). Leaves were lightly punctured with a toothpick in a middle leaf panel. Peptide solutions were then infused via needle-less syringe into the wound, filling the panel. Each peptide sample was infused into a leaf of 2 different plants. The leaves were observed and scored over the next 48 hours for withering and browning, lesions typical of programmed cell death. These studies had […] main goals: (1) determine the minimal sequence sufficient for HR elicitation (2) increase the solution stability of the peptides; (3) make disruptive mutations to verify the residues which are most important for HR elicitation; (4) make conservative mutations to identify the degree of specificity for particular amino acids.

[3] = Stability of material bulked with maltodextrin and buffer at room temperature; type: physicochemical; conditions: bulked with maltodextrin and phosphate buffer (pH 8.0) or citrate buffer (pH 7.2), 48 hours
Procedure: Samples of material P5, P5-21, and P5-25 bulked with maltodextrin and either phosphate buffer (pH 8.0) or citrate buffer (pH 7.2) were tested for stability at room temperature for 48 hours.

[4] = Solution (formulation) stability at 50° C. (HPLC); type: physicochemical; conditions: 50 mM citrate pH 7.2, 0.09% AI, 0.25% Proxel GXL
Procedure: Peptides solutions were analyzed by HPLC for % loss of the peptide signal over time during incubation at 50° C., relative to the time 0 sample. Peptides were analyzed until the remaining peptide concentration decreased to 80% of original (20% degradation).

[5] = test system: tobacco mosaic virus (TMV); test: Induction of resistance to tobacco mosaic virus in tobacco; type: in vivo; conditions: % decline in TMV lesions vs UTC, spray 20 ug/ml
Procedure: Peptides were tested for the induction of resistance to tobacco mosaic virus (TMV) in tobacco. Briefly, three tobacco plants at 6-8 weeks old were selected per group (samples and controls). The bottom-most leaf of the plant was covered and the plant was sprayed with a solution of water (untreated control—UTC), peptide, or Proact (positive control). The spray was applied until the leaves were fully wetted, indicated by liquid dripping from the leaves. The plants were then allowed to dry and the leaf covering was removed.
Three days post-treatment, the previously-covered leaf and a leaf on the opposite side of the plant were then lightly dusted with diatomaceous earth and 20 ul of a 1.7 ug/ml solution of purified tobacco mosaic virus was applied. The TMV solution was then spread across the leaf surface by lightly rubbing solution and the diatomaceous earth across the surface of the leaves. Two minutes after inoculation, the diatomaceous earth was rinsed off the leaves with water. 3 days after TMV inoculation, the leaves were scored based on the number of TMV lesions observed. The leaf was also scored for signs of the hypersensitive response, including yellowing and wilting of the affected leaves.
Effectiveness described in Table 6 refers to the % decline in TMV lesions on treated vs UTC plants. A reduction of TMV on covered leaves indicates a systemic immune response in the plant while reduction on uncovered leaves indicates a local response. Asterisks indicate that the P-value derived from a T-test was <0.05.

corn = test: Drought resistance in corn (greenhouse, spray); type: in vivo; conditions: corn under drought
Procedure: The effectiveness of peptide treatment in reducing drought stress was assessed in corn and soy. 3.5 inch pots were filled with Sunshine #1 soil (SunGro Horticulture), fertilized with a 20-10-20 mixture. The soil was soaked and drained overnight. Seeds (either corn or soy, manually inspected to ensure uniform seed size) were planted at a depth of 1 inch for germination. Plants were grown in a greenhouse under 16 hour light days at >70° F. and 8 hour dark nights at >65° F. Prior to drought conditions, the plants were well-watered.
When the plants reached the V1 stage, plants were culled to achieve a uniform height (abnormally large and small plants were removed). Plants were then randomly assigned to control (spray without peptide) or treatment (spray with peptide) groups and heights were measured. Peptide was made up in a solution of 0.2 ug/ml or 2 ug/ml in distilled water+0.01% Tween-20, and applied as a fine mist from a spray bottle until the solution drips from the leaves. After the peptide solutions were dried, the plants were again randomized in a randomized complete block design. Drought stress was initiated after the peptide treatment. This was caused by maintaining the water level at 25-50% of the maximum capacity for water (capacity was decided as the weight of the pot filled with saturated soil minus the weight of the filled pot prior to adding water).
The drought test phase ended after 2-3 weeks. At that time, the plant height was again measured and the growth rate was calculated as the difference between this and the previously-recorded height. The above-ground part portions of the plants were harvested and weighed. The above-ground portion was also dried in an oven at 70° C. for 72 hours and a dry weight was obtained. All calculations were compared with matched untreated control plants.

soybean cyst nematodes = test: Seed coating with peptides compared with chemical nematode agents in soy; type: in vivo, soy (Sheyenne variety)
Procedure: Additional experiments will be performed to examine the effectiveness of peptide treatment in suppressing the growth of soybean cyst nematodes using one or more of the other peptides in Tables 1 and 2, including, without limitation, P5-21 and P5-25. See Example 8 below.
The effectiveness of peptides was tested in soy (Sheyenne variety) and compared with current anti-nematode chemicals. Briefly, soy seeds were commercially coated with peptide at rates of 10, 30, or 90 ug peptide per seed or with chemical nematicides Avicta Complete, Clariva Complete, Poncho/Votivo, or Velum total. 3 soy seeds were planted in a mixture of topsoil and sand (pasteurized) in a 10 cm diameter pot and were inoculated with 1500 eggs per pot at planting. 10 replicate pots were used per experimental condition. After plants emerged from the soil, the plants were thinned to one plant per pot. Plants were harvested about 45 days after planting. The following measures were taken: (1) Fresh shoot and root weights; (2) Root condition graded 0-10 for the presence of disease; (3) Nematode cysts per plant; (4) Nematode eggs per plant; and optionally (5) Male nematodes. The following values were calculated: eggs per gram of root, cysts per gram of root, and eggs per cyst.

Sequence	solubility [1]	HR [2]	degradation (more than 5% loss) [3]	Time before 20% degradation [4] [days]	Effectiveness Covered (%) ([5]; covered leaf (systemic response))	Effectiveness Uncovered (%) ([5]; uncovered leaf (local response))	drought resistance, experimental results (corn)	reduction in cysts per gram root (soybean cyst nematodes; 10 ug peptide per seed) [%]	reduction in eggs per gram root (soybean cyst nematodes; 10 ug peptide per seed) [%]	reduction in cysts per gram root (soybean cyst nematodes; 30 ug peptide per seed) [%]	reduction in eggs per gram root (soybean cyst nematodes; 30 ug peptide per seed) [%]	reduction in cysts per gram root (soybean cyst nematodes; 90 ug peptide per seed) [%]	reduction in eggs per gram root (soybean cyst nematodes; 90 ug peptide per seed) [%]
QLELLLAFIAAALQQ [Peptide P5-5]	Precipitation												
SEEEEQLDQLLLAFIAAALQQ [Peptide P5-25]		-	No significant degradation	53	93* %	91* %	not statistically significant	92	94	82	85	91	93
